Results on one molecule are retold here after US20150125506A1, “RETINAL PIGMENT EPITHELIAL CELLS DIFFERENTIATED FROM EMBRYONIC STEM CELLS WITH NICOTINAMIDE AND ACTIVIN A” (HADASIT MEDICAL RESEARCH SERVICES AND DEVELOPMENT LTD., priority 2007, published 2015).

The test system of one assay is hESC clusters. Description: RT-PCR and Real-time PCR of marker transcripts in differentiating hESC clusters. The assay is classed as cell-based, human. The settings on record: for enhancement of MiTF-A expression by NA supplementation / increase of RPE65 expression with vs without NA: 12 weeks. As to the method: Six-eight days after plating the hES cells that were dissociated into single cells as above; they were removed from the feeders by treatment with type IV collagenase. The clumps were cultured for various periods up to 12 weeks in suspension within bacteriological dishes precoated with 0.1% low melting temperature agarose in KO medium (KOM) consisting of 86% KO-DMEM, 14% KOSR, 1 mM glutamine, 1% nonessential amino acids, 50 units/ml penicillin, and 50 μg/ml streptomycin, in the presence or absence of 10 mM nicotinamide (NA) (Sigma, St. Louis, Mo., USA). In some experiments the medium used was Neurobasal™ medium (Gibco) supplemented with N2 supplement (1:100) (Gibco) (NN medium), which was substituted after 1 week with DMEM/F12 (Gibco) supplemented with B27 (1:50) (Gibco).
Human ESCs were allowed to differentiate as free-floating clusters in KOM as above for up to six weeks in the presence of nicotinamide (NA) 10 mM. After the first week or 2 weeks of differentiation, cultures were supplemented with activin A 20-180 ng/ml (PeproTech Inc, Rocky Hill, N.J.), with TGFβ3 (1 ng/ml; R&D Systems Inc, Minneapolis, Minn.) with TGFβ1 (1 ng/ml-20 ng/ml; R&D Systems Inc) or with SB431542 (5 μM-50 μM, Sigma). Control cultures were supplemented with NA alone.
Human ESCs in suspension in KOM were also supplemented after one week with the bone morphogenetic protein (BMP) antagonist noggin (700 ng/ml R&D Systems Inc, Minneapolis, Minn.) in the presence and absence of NA, or during the 3rd and 4th weeks with TGFβ (20 ng/ml PeproTech Inc) in the presence of NA and allowed to differentiate up to an age of 6 weeks as free-floating clusters in suspension.
Total RNA was extracted from hESCs grown under serum-free conditions (1 week after passage), and at sequential time points up to 8 weeks during culturing of hESC-derived clusters in the presence or absence of 10 mM nicotinamide and with or without supplementation with TGFβ-superfamily growth factors or antagonists. The RNA was isolated using TRIzol reagent (Invitrogen, http://www.invitrogen.com) or TRI-Reagent (Sigma). cDNA synthesis was carried out using Moloney murine leukemia virus reverse transcriptase (M-MLV RT) and random primers, according to the manufacturer's instructions (Promega Corporation, Madison, Wis., http://www. promega.com). Polymerase chain reaction (PCR) was carried out using standard protocols with Taq DNA Polymerase (Gibco-BRL). Amplification conditions were as follows: denaturation at 94° C. for 15 seconds, annealing at 55° C. for 30 seconds, and extension at 72° C. for 45 seconds. The number of cycles varied between 18 and 40, depending on particular mRNA abundance. Primer human sequences for identifying human gene transcripts (forward and reverse 5′-3′) and the length of the amplified products were as follows (SEQ ID NOs. 1-12):
For Real-time PCR the levels of transcripts were monitored using TaqMan primers and probes that were derived from the commercially available TaqMan® Assays-on-Demand Gene Expression Products (Applied Biosystems, Foster City, Calif.): Oct4, ID Hs01895061; Musashi, ID Hs01045894; Pax6, ID Hs00240871; Six3, ID Hs00193667; Rx1, ID Hs00429459; Chx10, ID Hs01584048; MiTF-A, ID Hs01115553; MiTF-total, ID Hs01115557; Bestrophin, ID Hs00188249; RPE65, ID Hs00165642; Sox10, ID Hs00366918; Crx, ID Hs00230899. Quantitative PCR analysis was performed using an ABI Prism 7000HT and ABI Prism 7900HT Sequence Detection Systems and TaqMan® Universal PCR Master Mix (Applied Biosystems) according to the manufacturer's protocol. Housekeeping gene β-glucuronidase (GusB, assay ID Hs99999908) was selected as an internal reference for normalization in the Real-Time RT-PCR quantification analysis and the relative expression level of each gene is shown as a relative value when the expression level of day 0 (or untreated cells) was set at 1. Amplification reactions were carried out in duplicates or triplicates according to manufacturer's protocol (Applied Biosystems).

The subject of another assay is hESC-derived clusters. Put plainly: Flow cytometry of PSA-NCAM and TRA-1-60 positive cells in hESC-derived clusters. The class given is cell-based, human. The method, then:
Flow cytometric analysis was performed to determine the number of PSA-NCAM and TRA-1-60 positive cells at different time points within the hESC-derived clusters differentiating with or without nicotinamide supplementation. The clusters were dissociated with 0.04% Trypsin/0.04% EDTA. The single cells were then stained with anti-PSA-NCAM or anti-Tra-1-60 antibodies (both from Chemicon; 1:100), detected with goat anti-mouse immunoglobulins conjugated to FITC (Dako; 1:100), and counterstained with the cell viability dye Propidium iodide (0.005 mg/ml; Sigma) Control cells were incubated only with a secondary antibody. The cell-associated immunoreactivity was analyzed with FACScalibur (Becton Dickinson Immunocytometry Systems), using CellQuest software.
In general terms: Flow cytometry measures light scatter and fluorescence of single cells or particles in a stream.

Setting [1] is: 2 weeks old clusters, RT-PCR, with vs without NA.
The mark [2] stands for this setting: 6 weeks of differentiation, KOM, with vs without NA, Real-time RT-PCR.

Bounds are passed on as bounds.

Regarding `NC(=O)c1cccnc1` [NA, nicotinamide], in the assay on hESC clusters (setting [1]), the “expression of activin receptor ACTRIB” value is recorded as “high” and the “expression of activin receptor ACTRIIB” value is recorded as “high”. Besides, in the assay with hESC clusters (setting [2]), the “increase of MiTF-A expression in presence of NA” value is “nearly two-fold” and the “increase of RPE65 expression in presence of NA” value was roughly 30 fold. The “augmentation of RPE65 expression” value in the assay with hESC clusters (8-week time course, NA-treated vs spontaneously differentiating clusters) is greater than 100 folds. Besides, in the assay with hESC clusters (KOM), the “enhancement of MiTF-A expression by NA supplementation” value is “approximately 3 fold” and the “increase of RPE65 expression with vs without NA” value is recorded as “approximately doubled”. In the assay with hESC clusters (NA treatment vs no NA), the “expression of Chx10” value is recorded as “increased”, the “expression of Crx (photoreceptor progenitor marker)” value is listed as “increased”, the “expression of Rx1 transcripts” value was “increased” and the “expression of Six3 transcripts” value was “increased”. Also, the “expression of Bestrophin transcripts” value in the assay on hESC clusters (NA-treated cultures vs spontaneously differentiating hESC clusters) is reported as “higher”. In the assay on hESC clusters (NN/DMEM medium), the “enhancement of MiTF-A expression by NA supplementation” value was “approximately 2.5 fold” and the “increase of RPE65 expression with vs without NA” value was roughly 6 fold. The “expression of Pax6 transcripts” value in the assay with hESC clusters (after 2-6 weeks of differentiation, with vs without NA) is recorded as “significantly increased”. The “expression of Otx2 transcripts” value in the assay with hESC clusters (after 2 weeks of differentiation, with vs without NA) was “significantly increased”. In addition, in the assay with hESC clusters (after 4-6 weeks of differentiation, with vs without NA), the “expression of Musashi transcripts” value is “significantly increased”. The “expression of transcripts of the early RPE marker MiTF A” value with hESC clusters (time course in presence of NA) is given as “induced after 4 weeks”. In the assay on hESC clusters (time course, with vs without NA), the “expression of Oct4 (marker of undifferentiated hESCs)” value was “declined more rapidly”. For the same molecule, in the assay on hESC clusters (with vs without NA, M51 melanoma cell line as control), the “expression of Sox10 (melanocyte developmental marker)” value is reported as “not dependent on NA supplementation”. Further, in the assay on hESC-derived clusters (FACS time course, NA treated vs untreated), the “expression of TRA-1-60 (surface marker of undifferentiated cells)” value is on record as “declined more rapidly”. Also, in the assay with hESC-derived clusters (after 4 weeks of differentiation with NA), the “percentage of cells expressing PSA-NCAM (FACS)” value turned out to be 81.4±6.3%.
